According to BindingDB's records for doi:10.1021/jm991079p (University of Heidelberg, 2000):

Columns and labels:
[1] = target: Sigma-2 receptor (TMEM97) (Rattus norvegicus); assay: Binding affinity was measured on Sigma receptor type 2 with rat liver membranes and [3H]- DTG as ligand.
[2] = target: Sigma non-opioid intracellular receptor 1 (Cavia porcellus) (UniProt Q60492); assay: Binding affinity was measured on Sigma receptor type 1 with guinea pig membranes and [3H]- pentazocine as ligand.
Sigma non-opioid intracellular receptor 1 (Cavia porcellus), sequence (Q60492 whole entry, looked up): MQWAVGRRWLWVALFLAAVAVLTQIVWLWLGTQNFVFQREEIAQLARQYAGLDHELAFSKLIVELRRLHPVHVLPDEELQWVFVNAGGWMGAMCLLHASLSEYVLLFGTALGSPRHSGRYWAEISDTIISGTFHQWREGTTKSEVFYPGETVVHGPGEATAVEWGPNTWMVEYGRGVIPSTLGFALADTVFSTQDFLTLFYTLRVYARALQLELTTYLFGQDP

SMILES | Ki [1] | Ki [2]
CCN(CC)CCNC(=O)c1cc(Br)c(N)c(I)c1OC [4-Amino-5-bromo-N-(2-diethylamino-ethyl)-3-iodo-2-methoxy-benzamide] | 2350 nM | 278 nM
CCN(CC)CCNC(=O)c1cc(I)c(NC(C)=O)cc1OC [4-acetamido-N-(2-(diethylamino)ethyl)-5-iodo-2-methoxybenzamide] | 115000 nM | 5190 nM

Further lines, results first:

Ki [1] | Ki [2] | SMILES
6520 nM | 249 nM | CCN(CC)CCNC(=O)c1ccc(OC)c(I)c1 [N-(2-Diethylamino-ethyl)-3-iodo-4-methoxy-benzamide (IMBA)]
1020 nM | 92 nM | CCN(CC)CCNC(=O)c1cc(I)ccc1OC [N-(2-Diethylamino-ethyl)-5-iodo-2-methoxy-benzamide]
21400 nM | 484 nM | CCN(CC)CCNC(=O)c1cc(I)c(N)cc1OC
